From patent US20110039811A1, “TREATING HYPERGLYCEMIA WITH 25-HYDROXYVITAMIN D3” (priority 2008, published 2011)

Experiments:
[1] = cited from earlier work
plasma glucose [2] = test: Mouse study 2: plasma glucose in a model of muscle atrophy (hindlimb unloading); type: in vivo, mice; details: for change in blood glucose levels versus control with unloading (in words): study 2, Table 2; for Plasma glucose: study 2, hindlimb unloading, 50 μg/kg/bw (combination 50+50) daily by gavage for 3 weeks, control with unloading 12.89, without unloading 12.02
Source text: Briefly, nine month old animals were randomized at the beginning of the study into five groups with 10 animals per group. The animals were placed in special cages for duration of three weeks and their tails were suspended, which leads to skeletal muscle atrophy of the unloaded hindlimbs. An additional group without hindlimb unloading was placed in identical cages in order to detect the effects of unloading. All mice were housed separately and had free access to feed and water ad libidum. All animals were treated daily by gavage throughout the 3 weeks of the experiment: • 1. Control group without unloading received vehicle (gelatine) • 2. Control group with unloading received vehicle (gelatine) • 3. […] The 25-OH D3 group with unloading received 25-OH D3 (50 μg/kg/bw) • 5.

blood glucose = test: Clinical trial: fasting glucose levels, week 15 versus week 2; type: in vivo, human; details: for effect on glucose levels (conclusion in words): daily or weekly oral dosing, week 15 vs week 2; for number of individuals with lower glucose levels at week 15 as compared to week 2: of ten individuals receiving daily (20 μg) or weekly (140 μg) oral dosing, postmenopausal women, no rigorous statistics
Source text: (§1) Each group included five subjects.
(§2) Equimolar quantities of both substances were investigated.
(§3) Each dosage was consumed orally at breakfast.
(§4) Rigorous statistical analysis of the results obtained could not be performed for two reasons. First, upon unblinding the data, it was discovered that there was a difference between the groups' baseline glucose levels, and that this difference continued throughout the study. Secondly, upon examining individual's insulin levels, it was noted that a number of them were recorded as “0.0” in at least one visit.

insulin levels = test: Clinical trial: insulin levels, week 15 versus week 2; type: in vivo, human; details: for number of individuals with higher insulin levels at week 15 than at week 2 / number of individuals with lower insulin level at week 15 than at week 2: only individuals without a "0.0" insulin result: four for Vitamin D3, five for 25-OH D3, daily or weekly dosing
Source text: as §1, §2, §3, §4

plasma glucose [3] = test: Mouse study 1: plasma glucose in a model of muscle hypertrophy; type: in vivo, mice
Description: In the first study, the effects of 25-OH D3 on blood glucose were determined in a model of muscle hypertrophy. Briefly, two groups of 10 animals were anesthetized and the left hindlimb of the animals was fixed. All animals received an analgesic. A small incision was made through the skin over the gastrocnemius muscle. The complete gastrocnemius muscle and his tendons were exposed. Both heads of the gastrocnemius muscle were carefully dissected from the underlying intact muscles and care was taken not to rupture nerves and vessels. The skin was closed with a silk suture and the animals were returned into the cages. After recovering from anesthesia the animals could move directly without problems in their cages. Animals were treated for three weeks by gavage with 25-OH D3 at a daily dosage of 50 μg/kg and the control group received vehicle. At the end of the study, blood was taken and plasma glucose concentration was analyzed by a Hitachi 912 Automatic Analyser.

Row | Molecule | blood concentration at which hypercalcemia may occur ([1]; in vivo) | change in blood glucose levels versus control with unloading (in words) (plasma glucose [2]) | Plasma glucose (plasma glucose [2]) [mmol/L] | effect on glucose levels (conclusion in words) (blood glucose) | number of individuals with lower glucose levels at week 15 as compared to week 2 (blood glucose) | ability to improve insulin sensitivity (conclusion in words) (insulin levels; compared with Vitamin D3) | number of individuals with higher insulin levels at week 15 than at week 2 (insulin levels) | number of individuals with lower insulin level at week 15 than at week 2 (insulin levels) | change in plasma glucose compared to control group (in words) (plasma glucose [3]; study 1, Table 1) | Plasma glucose (plasma glucose [3]; study 1, muscle hypertrophy model, 50 μg/kg daily by gavage for three weeks, vehicle control 15.53) [mmol/L] | blood concentration of 25-hydroxyvitamin D after ingestion as a dietary supplement ([1]; ingestion of 250 μg/day Vitamin D)
1 | 25-hydroxyvitamin D | greater than 375 nmol/L | – | – | – | – | – | – | – | – | – | –
2 | C=C1CC[C@H](O)C/C1=C/C=C1\CCC[C@]2(C)[C@@H]([C@H](C)CCCC(C)(C)O)CC[C@@H]12 [25-OH D3, 25-hydroxyvitamin D3] | – | moderate decrease in blood glucose levels | 12.75 | can lower glucose levels | 6 of 10 | better ability to improve insulin sensitivy than does Vitamin D3 | one | four | decrease in plasma glucose | 14.65 | –
3 | C=C1CC[C@H](O)C/C1=C/C=C1\CCC[C@]2(C)[C@@H]([C@H](C)CCCC(C)C)CC[C@@H]12 [Vitamin D3, cholecalciferol] | – | moderate decrease in blood glucose levels | 12.69 | can lower glucose levels | 7 | – | three | one | – | – | –
4 | Vitamin D | – | – | – | – | – | – | – | – | – | – | about 200 nmol/L
